Consider eight molecules from US11161849B2, “Inhibiting the transient receptor potential al ion channel” (Eli Lilly and Company, priority 2018, dated 2021).

Usually pIC50 stands for the negative decadic logarithm of the IC50, by convention in mol/L. The solubility is the dissolved amount per volume that the medium holds. A lower solubility goes with little dissolved substance.

pIC50: −log10 of the molar value.

Data set [1] addresses human TRPA1 (Homo sapiens (Human), UniProt O75762). Kind of data set: Inhibition of human TRPA1 in whole cell patch configuration (10 μM AITC activation). The class given is cell-based. The settings on record: current activation 10 μM AITC, tested concentrations 320 pM to 3.2 μM, read-out: hTRPA1 IC50. The procedure:
Data for TRPA1 inhibition was obtained by this method for the indicated compounds of Formula (I), (II), or (III), with the relevant data included in Table 2 below. All currents were recorded in whole-cell configuration using EPC-9 and EPC-10 amplifiers and Patchmaster software (HEKA) or similar. […] The standard pipette solution consisted of 140 mM CsAsp, 10 mM EGTA, 10 mM HEPES, […], 1.91 mM CaCl2, and up to 0.3 mM Na2GTP, with pH adjusted to 7.2 with CsOH. In addition, a solution containing 145 mM CsCl, 10 mM HEPES, 10 mM EGTA, and up to 0.3 mM Na2GTP and 1 mM MgCl2 (pH 7.2 adjusted with CsOH) can be used. The standard bath solution contained 150 mM NaCl, 10 mM HEPES, 10 mM glucose, 4.5 mM KCl, 1 mM EGTA, 3 mM MgCl2, with pH adjusted to 7.4 with NaOH. In some instances, 2 mM CaCl2 was added in place of EGTA and the concentration of MgCl2 was reduced to 1 mM.
Data were collected either by continuous recordings at −60 mV or by applying voltage ramps from a holding potential of −40 mV every 4 s. Continuous recordings were collected at 400 Hz and digitally filtered off-line at 10 Hz for presentation. Voltage ramps were applied from −100 mV or −80 mV to +100 mV or +80 mV over the course of 400 ms, and data were collected at 10 kHz and filtered at 2.9 kHz. Inward and outward currents were analyzed from the ramps at −80 and 80 mV, respectively. Liquid junction potential correction was not used.
Solutions were switched using a gravity-fed continuous focal perfusion system. To achieve rapid temperature changes, two temperature control, and perfusion systems were employed simultaneously. For temperatures greater than or equal to 22° C., a Warner Instruments bipolar temperature controller (TC-344B) and inline heater (SHM-8) were used. For temperatures below 22° C. a Warner Instruments temperature controller (CL-100) and thermal cooling module (TCM-1) were used. Temperatures were confirmed using a thermistor (Warner Instruments, TA-29), with temperatures at the recorded cell estimated to be within +/−2° C. of those reported.
The antagonist effects of compounds of Formula (I), (II), or (III) against human TRPA1 (“hTRPA1”) in a whole cell patch configuration were evaluated using the in vitro assay described above. The current activation tested was 10 μM AITC, and the tested concentrations ranged from 320 pM to 3.2 μM.

A short description of data set [2]: Solubility in Normal Ringer Solution. The settings on record: saline or isotonic, kinetic from dmso stock, pH 7.4 at room temperature, 40 minutes incubation, from 10 mM DMSO stock. The class given is physicochemical. As to the method: Compounds of the invention were also tested for solubility in Normal Ringer Solution. Briefly, compound solubility was determined by dissolving a standard range of volumes of 10 mM DMSO stock of compounds in Normal Ringer Solution (pH 7.4 at room temperature). Following vortex and incubation for 40 minutes at room temperature, solutions were filtered, quenched with acetonitrile, and analyzed by Liquid Chromatography. Solubility limits were determined by comparison to a standard curve. […] Solubility is reported as “greater than” if the observed increase between the last 2 dilutions tested is greater than 2-fold.

Chain of human TRPA1 (O75762 whole entry): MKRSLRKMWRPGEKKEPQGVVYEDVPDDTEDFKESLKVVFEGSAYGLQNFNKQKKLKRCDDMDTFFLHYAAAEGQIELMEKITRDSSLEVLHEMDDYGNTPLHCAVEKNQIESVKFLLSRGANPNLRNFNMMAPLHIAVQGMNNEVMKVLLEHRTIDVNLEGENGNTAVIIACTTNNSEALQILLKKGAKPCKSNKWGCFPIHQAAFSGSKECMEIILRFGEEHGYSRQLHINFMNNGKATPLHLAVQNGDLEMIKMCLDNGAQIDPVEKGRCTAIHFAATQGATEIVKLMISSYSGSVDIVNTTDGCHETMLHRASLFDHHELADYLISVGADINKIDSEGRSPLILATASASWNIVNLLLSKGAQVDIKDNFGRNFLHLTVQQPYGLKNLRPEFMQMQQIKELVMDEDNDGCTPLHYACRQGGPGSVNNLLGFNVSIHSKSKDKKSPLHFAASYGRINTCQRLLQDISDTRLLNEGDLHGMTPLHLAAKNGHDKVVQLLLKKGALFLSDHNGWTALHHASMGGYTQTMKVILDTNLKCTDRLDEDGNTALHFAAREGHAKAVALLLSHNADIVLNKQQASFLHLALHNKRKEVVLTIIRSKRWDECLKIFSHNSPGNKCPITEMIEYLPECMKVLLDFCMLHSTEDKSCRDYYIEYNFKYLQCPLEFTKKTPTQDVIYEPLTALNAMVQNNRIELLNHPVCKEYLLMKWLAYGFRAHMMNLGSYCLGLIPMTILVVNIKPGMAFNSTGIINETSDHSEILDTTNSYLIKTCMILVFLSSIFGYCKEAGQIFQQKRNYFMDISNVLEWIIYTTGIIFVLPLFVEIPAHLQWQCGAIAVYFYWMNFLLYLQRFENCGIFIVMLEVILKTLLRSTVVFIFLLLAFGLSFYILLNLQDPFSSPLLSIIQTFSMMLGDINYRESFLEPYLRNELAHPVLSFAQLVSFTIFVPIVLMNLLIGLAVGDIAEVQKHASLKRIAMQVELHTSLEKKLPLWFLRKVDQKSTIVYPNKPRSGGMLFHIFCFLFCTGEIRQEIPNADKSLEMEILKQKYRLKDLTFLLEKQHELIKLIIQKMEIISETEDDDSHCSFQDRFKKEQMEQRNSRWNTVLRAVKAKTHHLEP

Turning to `Cc1noc(Cn2c(=O)[nH]c3ncn(C(C)C(=O)Nc4cccc(-c5cnc(C(F)(F)F)nc5)n4)c3c2=O)n1` (centres unmarked) [Compound 101], in data set [1], the pIC50 is 6.25. For the same molecule, in data set [2], the solubility at 40 min is > 31.3 µM. For `CC(=O)NC(=O)Cn1c(=O)c2c(ncn2[C@@H](C)C(=O)Nc2cccc(-c3cnc(C(F)(F)F)nc3)n2)n(C)c1=O` [Compound 103], the negative-log IC50 (pIC50) in data set [1] was 7.32. Besides, in data set [2], the solubility at 40 min is > 31.3 µM. The matching figures for `C[C@@H](C(=O)Nc1cncc(-c2cnc(C(F)(F)F)nc2)n1)n1cnc2c1c(=O)n(CC(N)=O)c(=O)n2C` [Compound 104]: 5.15 and > 31.3 µM. The matching figures for `C[C@@H](C(=O)Nc1cccc(-c2cnc(C(F)(F)F)nc2)n1)n1cnc2c1c(=O)n(CC(N)=O)c(=O)n2C` [Compound 105]: 6.25 and > 31.3 µM. Turning to `[2H]C([2H])([2H])n1c(=O)n(Cc2nc(C)no2)c(=O)c2c1ncn2C(C)C(=O)Nc1cccc(-c2cnc(C(F)(F)F)nc2)n1` (centres unmarked) [Compound 107], the solubility at 40 min in data set [2] is > 31.3 µM. As to `Cc1noc(Cn2c(=O)[nH]c3ncn(C(C)C(=O)Nc4cncc(-c5cnc(C(F)(F)F)nc5)n4)c3c2=O)n1` (centres unmarked) [Compound 100], the pIC50 in data set [1] was < 5.00. The solubility at 40 min in data set [2] is > 31.3 µM. As for `[2H]C([2H])([2H])n1c(=O)n(Cc2nc(C)no2)c(=O)c2c1ncn2C(C)C(=O)Nc1cncc(-c2cnc(C(F)(F)F)nc2)n1` (centres unmarked) [Compound 106], in data set [2], the solubility at 40 min is > 31.3 µM. `CC(=O)NC(=O)Cn1c(=O)c2c(ncn2[C@@H](C)C(=O)Nc2cncc(-c3cnc(C(F)(F)F)nc3)n2)n(C)c1=O` [Compound 102]: the pIC50 in data set [1] is 6.76. In addition, the solubility at 40 min in data set [2] is > 31.3 µM.
